Measured values from patent US11000482B2, “Fabrication of a suramin-loaded nanoparticle and its application” (UNIVERSITY OF SOUTH CAROLINA, priority 2018, dated 2021).

What was measured:
MDA-MB-231 cells [1] = experiment: MTT cell viability assay with combination index analysis; format: cell-based, human
Experimental: The anticancer activities of the combination of DOX and SM were investigated with an MTT colorimetric assay. Cells with or without a/b FGF treatment were seeded in 96-well plates at an initial density of 20,000 cells/well. After 24 hours of incubation, the medium was replaced with 150 μL of fresh medium containing different treatments, including DOX, SM, and the combination of DOX and SM, and continued to be incubated for an additional 24 hours or 48 hours. Afterwards, the media were replaced with 100 μL fresh media containing 1 mg/mL MTT reagent and incubated for another 4 hours. The formed MTT crystals were dissolved with a stop solution and the final optical density of the medium was measured using a microplate reader (ELX808, Bio-Tech Instrument, Inc.) at λ=595 nm. A combination index (CI) analysis based on the Chou-Talalay method was performed using CalcuSyn software.

[2] = In vitro release kinetics by dialysis in PBS; format: physicochemical; conditions: within 1 hour, free drug
Experimental: Two milliliters of GCS-SM/DOX NPs were loaded in dialysis bags (MWCO: 6-8 KDa, Spectrum laboratories) and were put into 25 mL of PBS (pH 7.4, 100 mM) at 37° C. under continuous stirring. At predesigned time points, 1 mL of media was withdrawn. Concentrations of SM or DOX were determined by UV-Vis spectrometer (Beckman, DU650) at 312 nm and 480 nm, respectively. All experiments were carried out in triplicate independently.

MDA-MB-231 cells [3] = experiment: Cellular uptake and subcellular distribution of DOX (FACS, confocal, cell fractionation); format: cell-based, human
Experimental: Cellular uptake of GCS-SM/DOX NPs was quantified by flow cytometry and confocal microscopy. The intracellular distribution of the DOX was measured by cell fraction assay. MDA-MB-231 cells were seeded in 12 well plates at 200,000 cells/well and treated with DOX or GCS-SM/DOX NPs at the DOX concentration of 1 μM for 3 hours. Afterwards, cells were washed 3 times with cold PBS to remove un-bound DOX or nanoparticles. Cells were collected, fixed in 4% formaldehyde, and analyzed by FACS (BD Accuri C6, BD Biosciences).
To further investigate the uptake behaviors of nanoparticles, confocal microscopy was employed. MDA-MB-231 cells were seeded in petri dishes and treated with DOX or GCS-SM/DOX NPs at a DOX concentration of 1 μg/mL. After 3 hours of co-incubation, cells were washed 3 times and images were taken with a Zeiss 710 LM confocal microscope.
GCS-SM/DOX NPs were incubated with MDA-MB-231 cells at 37° C. for 1 hour. Cells were washed 3 times, then collected by scraping. Cells were subjected to subcellular fractionation after the treatment. […] DOX uptake amount was quantified by the fluorescent intensity at the excitation at 485 nm with the emission at 585 nm. The protein concentration of cytosol and nuclear fraction were quantified by BCA assay kit.

MDA-MB-231 cells [4] = experiment: Transwell Matrigel cell invasion assay; format: cell-based, human; conditions: 40 μM SM, 16 hours; control 952
Experimental: BD cell culture inserts with a pore size of 8 μm (BD, Biosciences) were pre-coated with 100 μL of Matrigel at the concentration of 0.2 mg/mL (dilution from BD Matrigel stock 10 mg/mL with coating buffer). MDA-MB-231 cells were seeded at a density of 70,000 cells per 50 μL in the inserts in an FBS-free DMEM medium. SM or GCS-SM NPs was then added to the inserts together with 50 μL serum free medium. Each lower chamber was supplied with 1.2 mL 10% FBS containing medium supplemented with different treatments that were the same as each respective top chamber. After 16 hours of incubation, the inserts were washed with PBS and fixed with methanol. Subsequently, cells were stained with hematoxylin and washed twice with PBS. The membrane in each of the inserts was then cut and mounted onto a coverslip, and the cell number was counted with a light microscope under 10× magnification. Each well was imaged at 5 different fields, and the invasion rate was expressed by the average number of cells per microscopic field.

MDA-MB-231/Luc-GFP cells = experiment: Breast cancer lung metastasis mouse model (tail vein MDA-MB-231/Luc-GFP); format: in vivo, Female athymic mice (nu/nu)
Experimental: All animal experiments were conducted in accordance with NIH regulations and approved by the Institutional Animal Care and Use Committee of the University of South Carolina. Female athymic mice at the age of 6 to 8 weeks (nu/nu) were obtained from Jackson laboratory. […] Mice were then randomly divided into 5 groups and received the following treatments: 1) saline only; 2) SM at the dose of 3.5 mg/kg once per week; 3) free SM and DOX at the dose of 3.5 mg/kg of SM and 0.5 mg/kg of DOX once per week; 4) GCS-SM NPs at the dose of 3.5 mg/kg of SM once per week; 5) GCS-SM/DOX NPs at the dose of 3.5 mg/kg of SM and 0.5 mg/kg of DOX (molar ratio of SM to DOX is 17:1) once per week. The whole treating procedure lasted for two months and the progression of tumors was monitored every week by luminescence with an IVIS Lumia system after i.v. injection of luciferin (30 mg/mL, 50 μL). Bodyweights of the mice were recorded at the same time. At the endpoint of each mouse, organs were isolated and collected. The weights of the lungs were recorded. Fluorescent images of the lungs were also captured. The collected organs were fixed in 10% neutralized formalin solution and embedded in paraffin.

MDA-MB-231 cells [5] = experiment: Wound healing (cell migration) assay; format: cell-based, human; conditions: MDA-MB-231 pretreated with a/b FGF, live cell imaging
Experimental: The migration of breast cancer cells was evaluated with a wound healing assay. Living videos of cell migration in a 24-well plate were acquired with a Zeiss 710 LM confocal microscope. MDA-MB-231 cells were pretreated with a/b FGF for 24 hours. After that, a wound was created by scraping the cell monolayer in a straight line with a p200 tip, and cell debris was removed by washing with PBS three times. Cells were incubated with different treatments and allowed to grow in a 37° C. chamber with 5% CO2 for 24 hours. Videos were taken using a confocal microscope with a transmittance channel continuously at 10× magnification.

[6] = system: Human umbilical vein endothelial cells (HUVECs); experiment: Endothelial tube formation assay; format: cell-based; conditions: HUVEC on Geltrex
Experimental: Human umbilical vein endothelial cells (HUVECs) were cultured and maintained in a complete EGM Medium. Cells were stained with Celltracker Deep red (1 μM) for 30 minutes prior to the experiment. One hundred and fifty microliters (μL) of Geltrex® (Thermofisher) was added to each well in a 24-well plate and allowed to be polymerized for 30 minutes at 37° C. HUVEC cells were seeded in each well at a density of 2×10^5 cells/mL. SM, GCS, and GCS-SM NPs at concentrations of 10 μM and 20 μM were mixed with cells prior to seeding in the coated gel layer. The tube formation was photographed at 6 hours and 20 hours with an inverted phase contrast microscope (Canon Powershot A640) in a randomly selected field under 10× magnification, and the number of formed tubes and length of the tubes were quantified manually by Image J. Fluorescent images of cells were photographed by Zeiss 710 LM confocal microscope under 10× magnification.

[7] = system: CD31 stained microvessels in tumor tissues; experiment: CD31 immunohistochemistry of tumor microvessels; format: in vivo, Female athymic mice (nu/nu); conditions: CD31 IHC
Experimental: Tissue sections of 5 μm thickness were obtained from the formalin fixed, paraffin embedded tissue blocks with a microtome. The standard hematoxylin and eosin staining was performed in the lung, liver and kidney tissue sections of each group. To study the tumor neovasculature, CD31 IHC was applied to identify the intra-tumor blood vessel distribution. The section was deparaffinized and treated for 30 minutes with 0.5 M Tris buffer (pH 10) at 95° C. for antigen retrieval. Sections were blocked in 5% goat serum for 20 min at room temperature. The sections were blocked with peroxidase block for 5 minutes and incubated with a primary antibody (rabbit polyclonal anti-CD31 antibody) diluted with 1% BSA (1:50) for 1 hour at room temperature, followed by the staining with peroxidase labelled polymer for 30 minutes at room temperature. The sections were then developed with the substrate-DAB for 5 minutes at room temperature and counterstained with Gill's Hematoxylin for 10 seconds. The slides were mounted with ProLong® Gold Antifade Mountant and imaged at 40× magnification with a microscope.

human prostate PC3 cells = conditions: in the presence of doxorubicin; cited from earlier work
[8] = Histology (H&E) of lung, liver, kidney and TEM of heart of treated mice; format: in vivo, Female athymic mice (nu/nu)
Experimental: All animal experiments were conducted in accordance with NIH regulations and approved by the Institutional Animal Care and Use Committee of the University of South Carolina. Female athymic mice at the age of 6 to 8 weeks (nu/nu) were obtained from Jackson laboratory. MDA-MB-231/Luc-GFP cells were implanted by tail vein injection (2×10^6 cells in 100 μL PBS). Mice were then randomly divided into 5 groups and received the following treatments: 1) saline only; 2) SM at the dose of 3.5 mg/kg once per week; 3) free SM and DOX at the dose of 3.5 mg/kg of SM and 0.5 mg/kg of DOX once per week; 4) GCS-SM NPs at the dose of 3.5 mg/kg of SM once per week; 5) GCS-SM/DOX NPs at the dose of 3.5 mg/kg of SM and 0.5 mg/kg of DOX (molar ratio of SM to DOX is 17:1) once per week. The whole treating procedure lasted for two months and the progression of tumors was monitored every week by luminescence with an IVIS Lumia system after i.v. injection of luciferin (30 mg/mL, 50 μL). Bodyweights of the mice were recorded at the same time. At the endpoint of each mouse, organs were isolated and collected. The weights of the lungs were recorded. Fluorescent images of the lungs were also captured. The collected organs were fixed in 10% neutralized formalin solution and embedded in paraffin.
Tissue sections of 5 μm thickness were obtained from the formalin fixed, paraffin embedded tissue blocks with a microtome. […]

| Structure (SMILES) | cytotoxicity of DOX on further increase of SM (MDA-MB-231 cells [1]; SM 20 μM or 100 μM, presence of a/b FGF) | cytotoxicity of DOX on addition of SM (MDA-MB-231 cells [1]; addition of 10 μM SM, presence of a/b FGF) | release of free DOX [2] | DOX cellular uptake (MDA-MB-231 cells [3]; MDA-MB-231 pretreated with a/b FGF, confocal/FACS, 1-6 hours) | subcellular localization of DOX (MDA-MB-231 cells [3]; confocal, after 3 hours of treatment) | number of invaded MDA-MB-231 cells in each view area (MDA-MB-231 cells [4]) | survival rates versus control (MDA-MB-231/Luc-GFP cells; Kaplan-Meier at 12 weeks) | median survival time (MDA-MB-231/Luc-GFP cells; Kaplan-Meier at 12 weeks, control 64.5 days) [days] | proliferation of cancer cells and metastasis (whole-body luminescence) (MDA-MB-231/Luc-GFP cells; SM 3.5 mg/kg and/or DOX 0.5 mg/kg once per week, imaging over 6 weeks) | body weight change (MDA-MB-231/Luc-GFP cells; after 8 weeks of treatment) | effect on lung weight (MDA-MB-231/Luc-GFP cells; compared to control group) | inhibitory effect on cell migration (MDA-MB-231 cells [5]) | cytotoxicity (MDA-MB-231 cells [1]; 200 μM SM, 24 hours, MDA-MB-231) | IC50 (MDA-MB-231 cells [1]; Homo sapiens, 48 hours of treatment, MDA-MB-231) [µM] | inhibition of cell proliferation (cytotoxicity) (MDA-MB-231 cells [1]; concentrations up to 200 μM, within 24 h) | tube formation ability of HUVECs [6] | formation of new microvessels in tumor tissues [7] | concentration reversing FGF-induced drug resistance (human prostate PC3 cells) [µM] | kidney histology [8] | lung histology: tumor area [8] |
| --- | --- | --- | --- | --- | --- | --- | --- | --- | --- | --- | --- | --- | --- | --- | --- | --- | --- | --- | --- | --- |
| COc1cccc2c1C(=O)c1c(O)c3c(c(O)c1C2=O)C[C@@](O)(C(=O)CO)C[C@@H]3O[C@H]1C[C@H](N)[C@H](O)[C@H](C)O1 [DOX, doxorubicin] | did not additionally boost its cytotoxicity | greatly enhanced | about 75% | entered cells much more slowly than GCS-SM/DOX NPs | still stayed in the cytosol | – | – | – | – | – | – | – | – | – | – | – | – | – | – | – |
| Cc1ccc(C(=O)Nc2ccc(S(=O)(=O)O)c3cc(S(=O)(=O)O)cc(S(=O)(=O)O)c23)cc1NC(=O)c1cccc(NC(=O)Nc2cccc(C(=O)Nc3cc(C(=O)Nc4ccc(S(=O)(=O)O)c5cc(S(=O)(=O)O)cc(S(=O)(=O)O)c45)ccc3C)c2)c1 [SM, 8,8′-[carbonylbis[imino-3,1-phenylenecarbonylimino (4-methyl-3,1-phenylene)carbonylimino]]bisnaphthalene-1,3,5-trisulphonic acid] | – | – | – | – | – | 718 | moderately increased survival rates | 76.5 | slowed down compared to the control | did not cause significant weight loss | Neither the SM nor the GCS-SM NP groups showed significant effect on lung weight | only slightly inhibited cell migration | no cytotoxicity was observed | 200 | neither SM nor GCS-SM NP inhibited cell proliferation | significantly inhibited | did not decrease the formation of new blood vessels | 1 to 17 | normal kidney histologic structure | mild reduction in the occupied area ratio between the tumorous tissue and normal tissue |
